Where two headings read alike, the source gives them in different places.
What was measured:
[1] = depending on the ionic composition of the membrane; cited from earlier work
[2] = read-out: Kd for Ca^++; cited from earlier work
[3] = system: Gag/luciferase-lipoparticles; assay: Melittin poration of Gag/luciferase-lipoparticles (luciferase luminescence); type: biochemical; details: melittin 0.3 to 105 uM, 30 minutes
Experimental: FIG. 24. […] Lipoparticles were constructed to contain a luciferase enzyme inside the lipoparticle. […] To insure the integrity of the luciferase, after each addition of melittin, the same sample was lysed with Triton X-100 (circles) and again measured.
Lipoparticles containing a Gag-luciferase fusion protein were prepared as described herein. Melittin, ranging from 0.3 to 105 uM in final concentration, was added to solutions of Gag/luciferase-lipoparticles (MOPS pH 6.5 buffer), mixed, and incubated for 30 minutes. A 5 μl aliquot of the Lipoparticle solution was then transferred to a 96-well plate containing 50 μl of Luciferase assay reagent (Promega Steady Glo Luciferase Assay System) which contains the necessary reagents for enzymatic activity, including luciferin, ATP, and Mg^2+. Luminescence was measured for 1 second integrations in a Wallac Victor2V. […] Triton X-100 was used to lyse luciferase-lipoparticles as a positive control.

[4] = biological target: Shaker (Drosophila melanogaster, UniProt P08510); details: cited from earlier work
[5] = biological target: Kv1.3 (Homo sapiens, UniProt P22001); details: cited from earlier work
[6] = system: K-channels; details: cited from earlier work
[7] = system: Ca-activated K-channels; details: cited from earlier work

Sequence of Kv1.3 (P22001 whole entry): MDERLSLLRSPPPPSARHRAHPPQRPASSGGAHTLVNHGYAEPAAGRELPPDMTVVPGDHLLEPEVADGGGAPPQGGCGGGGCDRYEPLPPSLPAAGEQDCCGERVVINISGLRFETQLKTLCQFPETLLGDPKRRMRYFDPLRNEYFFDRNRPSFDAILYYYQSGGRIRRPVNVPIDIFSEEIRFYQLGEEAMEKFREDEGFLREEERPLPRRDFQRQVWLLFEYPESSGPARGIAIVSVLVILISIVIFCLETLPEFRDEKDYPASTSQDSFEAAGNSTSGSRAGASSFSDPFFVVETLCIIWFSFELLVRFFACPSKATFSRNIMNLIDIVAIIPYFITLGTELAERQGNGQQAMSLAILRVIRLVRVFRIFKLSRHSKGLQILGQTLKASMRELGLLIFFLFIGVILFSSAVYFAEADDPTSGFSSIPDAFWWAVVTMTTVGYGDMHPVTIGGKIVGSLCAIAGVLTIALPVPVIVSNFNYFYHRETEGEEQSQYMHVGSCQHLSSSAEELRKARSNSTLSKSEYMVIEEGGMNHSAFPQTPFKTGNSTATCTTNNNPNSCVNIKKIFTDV
Sequence of Shaker (P08510 whole entry): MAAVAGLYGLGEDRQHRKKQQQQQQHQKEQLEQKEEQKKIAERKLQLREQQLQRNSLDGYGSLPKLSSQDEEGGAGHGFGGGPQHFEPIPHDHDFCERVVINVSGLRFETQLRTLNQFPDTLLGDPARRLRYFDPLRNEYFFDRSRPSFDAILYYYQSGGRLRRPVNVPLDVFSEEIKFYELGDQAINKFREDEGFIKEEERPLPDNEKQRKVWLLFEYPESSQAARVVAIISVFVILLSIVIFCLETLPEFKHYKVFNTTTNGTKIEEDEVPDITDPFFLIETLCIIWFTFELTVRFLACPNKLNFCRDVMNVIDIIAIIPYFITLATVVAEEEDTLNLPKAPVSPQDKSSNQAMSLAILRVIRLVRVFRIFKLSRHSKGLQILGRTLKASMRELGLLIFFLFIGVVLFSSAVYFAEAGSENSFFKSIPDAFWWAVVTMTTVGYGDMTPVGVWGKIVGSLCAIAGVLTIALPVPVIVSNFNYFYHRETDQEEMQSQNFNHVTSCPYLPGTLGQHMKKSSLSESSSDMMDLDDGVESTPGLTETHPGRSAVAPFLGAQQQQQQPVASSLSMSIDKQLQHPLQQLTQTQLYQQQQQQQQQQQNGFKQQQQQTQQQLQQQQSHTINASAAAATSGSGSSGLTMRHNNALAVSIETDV

Molecule: CCCCCCCCCCCCCCCCCc1cc(=O)oc2cc(O)ccc12 [4-heptadecyl-7-hydroxycoumarin]
- pKa range [1]: 6.35-11.15

Molecule: Cc1ccc(N(CC(=O)O)CC(=O)O)c(OCCOc2cc3cc(-c4ncc(C(=O)O)o4)oc3cc2N(CC(=O)O)CC(=O)O)c1 [Fura-2]
- Kd [2]: 140 nM

Molecule: CC[C@H](C)[C@H](NC(=O)CN)C(=O)NCC(=O)N[C@@H](C)C(=O)N[C@H](C(=O)N[C@@H](CC(C)C)C(=O)N[C@@H](CCCCN)C(=O)N[C@H](C(=O)N[C@@H](CC(C)C)C(=O)N[C@H](C(=O)N[C@H](C(=O)NCC(=O)N[C@@H](CC(C)C)C(=O)N1CCC[C@H]1C(=O)N[C@@H](C)C(=O)N[C@@H](CC(C)C)C(=O)N[C@H](C(=O)N[C@@H](CO)C(=O)N[C@@H](Cc1c[nH]c2ccccc12)C(=O)N[C@H](C(=O)N[C@@H](CCCCN)C(=O)N[C@@H](CCCNC(=N)N)C(=O)N[C@@H](CCCCN)C(=O)N[C@@H](CCCNC(=N)N)C(=O)N[C@@H](CCC(N)=O)C(=O)N[C@@H](CCC(N)=O)C(N)=O)[C@@H](C)CC)[C@@H](C)CC)[C@@H](C)O)[C@@H](C)O)C(C)C)C(C)C [Melittin]
- permeabilization of lipoparticles (luciferase signal) [3]: increase of the luminescent signal
- permeabilization of lipoparticles (luciferase signal) ([3]; listed as melittin): the lipoparticles were permeabilized

Molecule: Agitoxin-2: toxin, inhibitor of K-channels
- Blocking of Shaker [4]: Blocks Kv1.3 and Shaker
- Blocking of Kv1.3 [5]: Blocks Kv1.3 and Shaker

Molecule: Alpha-Dendrotoxin
- Blocking of Shaker [4]: Blocks Kv1.3 and Shaker
- binding under high ionic strength conditions ([6]; high ionic strength): Binds very weakly under high ionic strength
- binding under low ionic strength conditions ([6]; low ionic strength): Binds strongly under low ionic strength conditions
- Blocking of Kv1.3 [5]: Blocks Kv1.3 and Shaker

Molecule: Charybdotoxin
- Blocking of Shaker [4]: Blocks Kv1.3 and Shaker
- Blocking of Shaker ([4]; listed as CHTX): highly specific, potent, and impermeant blocker
- effect of Ca on binding [6]: Ca inhibits binding
- binding at low ionic strength, high pH (8.5) ([6]; low ionic strength, high pH (8.5)): Low ionic strength, high pH (8.5) enhances binding
- Blocking of Kv1.3 [5]: Blocks Kv1.3 and Shaker
- Blocking of Kv1.3 ([5]; listed as CHTX): highly specific, potent, and impermeant blocker

Molecule: Iberiotoxin: toxin, inhibitor of K-channels (QFTDVDCSVSKECWSVCKDLFGVDRGKCMGKKCRCYQ; UniProt P24663 1-37, looked up)
- Blocking of Shaker [4]: not
- Blocking of Ca-activated K-channels [7]: Blocks
- Blocking of Kv1.3 [5]: not Kv1.3

Molecule: Margatoxin
- Blocking of Shaker [4]: not Shaker
- Blocking of Kv1.3 [5]: Blocks

Reference: patent publication US8574590B2 (Integral Molecular, Inc., priority 2003, dated 2013)
